Laboratory results from patent publication US20130261178A1, “PHENOXYPROPANOL DERIVATIVES AND THEIR USE IN TREATING CARDIAC AND CARDIOVASCULAR DISEASES” (priority 2010, published 2013).

Assays:
beta1-adrenoceptor = beta1-adrenoceptor (Homo sapiens, UniProt P08588); assay: 3H-CGP12177 whole-cell binding, CHO cells expressing human beta1-adrenoceptor; parameters: expressed in transfected cells; host or cells: CHO cells; settings: 3H-CGP 12177 whole cell binding, mean ± s.e.mean; for Kd: log KD, read-out: Beta 1 Log KD (converted)
Source text: (§1) The selectivity of a ligand is given by the ratio of beta-1 to beta-2 KD.

human beta3-adrenoceptor = molecular target: T1, human beta3-adrenoceptor (Homo sapiens, UniProt P13945); assay: 3H-CGP12177 whole-cell binding, CHO cells expressing human beta3-adrenoceptor; settings: 3H-CGP 12177 whole cell binding, mean ± s.e.mean; for Kd: log KD, read-out: Beta 3 Log KD (converted)
T1 construct: expressed in transfected cells; host or cells: CHO cells

human beta2-adrenoceptor = molecular target: T2, human beta2-adrenoceptor (Homo sapiens, UniProt P07550); assay: 3H-CGP12177 whole-cell binding, CHO cells expressing human beta2-adrenoceptor; settings: 3H-CGP 12177 whole cell binding, mean ± s.e.mean; for Kd: log KD, read-out: Beta 2 Log KD (converted)
T2 construct: expressed in transfected cells; host or cells: CHO cells
Source text: as §1

T2 sequence (P07550 whole entry): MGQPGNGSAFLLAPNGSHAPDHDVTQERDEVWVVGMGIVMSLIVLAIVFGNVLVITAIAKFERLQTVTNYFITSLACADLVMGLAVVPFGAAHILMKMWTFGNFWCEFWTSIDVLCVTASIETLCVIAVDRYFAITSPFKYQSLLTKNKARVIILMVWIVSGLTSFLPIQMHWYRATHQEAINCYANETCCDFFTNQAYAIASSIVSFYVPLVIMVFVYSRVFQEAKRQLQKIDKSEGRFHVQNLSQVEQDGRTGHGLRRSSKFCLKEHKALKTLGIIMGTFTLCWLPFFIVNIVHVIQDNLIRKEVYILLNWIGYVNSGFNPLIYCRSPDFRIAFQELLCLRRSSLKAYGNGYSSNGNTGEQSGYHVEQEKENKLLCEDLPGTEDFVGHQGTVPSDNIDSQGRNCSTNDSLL
T1 sequence (P13945 whole entry): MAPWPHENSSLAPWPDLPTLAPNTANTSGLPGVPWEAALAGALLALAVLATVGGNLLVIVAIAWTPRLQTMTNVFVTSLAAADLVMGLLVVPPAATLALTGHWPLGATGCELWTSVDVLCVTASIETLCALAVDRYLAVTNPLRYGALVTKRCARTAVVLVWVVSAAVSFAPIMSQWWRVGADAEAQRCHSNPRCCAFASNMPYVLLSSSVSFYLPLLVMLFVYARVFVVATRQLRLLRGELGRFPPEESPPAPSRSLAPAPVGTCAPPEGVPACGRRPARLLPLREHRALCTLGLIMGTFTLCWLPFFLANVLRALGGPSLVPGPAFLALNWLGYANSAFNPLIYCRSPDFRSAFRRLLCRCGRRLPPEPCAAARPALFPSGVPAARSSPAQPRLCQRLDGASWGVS
Sequence of beta1-adrenoceptor (P08588 whole entry): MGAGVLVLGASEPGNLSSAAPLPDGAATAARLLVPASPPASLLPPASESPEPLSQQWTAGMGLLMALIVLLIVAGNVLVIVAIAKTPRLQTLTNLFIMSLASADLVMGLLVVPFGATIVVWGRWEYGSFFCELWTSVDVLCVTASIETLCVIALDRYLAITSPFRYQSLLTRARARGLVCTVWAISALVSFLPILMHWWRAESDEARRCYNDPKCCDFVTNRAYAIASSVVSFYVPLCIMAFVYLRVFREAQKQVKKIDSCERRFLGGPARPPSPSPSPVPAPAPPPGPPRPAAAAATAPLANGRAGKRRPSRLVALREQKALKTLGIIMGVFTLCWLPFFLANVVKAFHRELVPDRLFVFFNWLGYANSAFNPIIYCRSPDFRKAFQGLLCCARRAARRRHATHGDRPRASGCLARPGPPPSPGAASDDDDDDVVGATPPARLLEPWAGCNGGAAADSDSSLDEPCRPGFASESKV

Row | melting point [°C] | Kd (beta1-adrenoceptor) [µM] | Kd (human beta3-adrenoceptor) [µM] | Kd (human beta2-adrenoceptor) [µM] | Beta 1 Log KD (beta1-adrenoceptor) | Beta 2 Log KD (human beta2-adrenoceptor) | Beta 3 Log KD (human beta3-adrenoceptor) | SMILES
1 | 131 to 133 | – | – | – | – | – | – | O=C(NCCNCC(O)COc1ccc(OCCOCC2CC2)cc1)Nc1ccc(OCc2ccccc2)cc1 (stereo not drawn) (hydrate or solvate) [45a]
2 | 73.5 | – | – | – | – | – | – | OC(CNCCOc1cccc(Cl)c1)COc1ccc(OCCOC2CCCC2)cc1 (stereo not drawn) (hydrate or solvate) [65a]
3 | 154 to 155 | – | – | – | – | – | – | OC(CNCCOc1ccc(-c2ccccc2)cc1)COc1ccc(OCCOC2CCCC2)cc1 (stereo not drawn) (hydrate or solvate) [65d]
4 | 101 to 103 | – | – | – | – | – | – | Oc1ccc(OCCNCC(O)COc2ccc(OCCOC3CCCC3)cc2)cc1 (stereo not drawn) (hydrate or solvate) [65e]
5 | 136 | – | – | – | – | – | – | Oc1ccc(OCCCNCC(O)COc2ccc(OCCOC3CCCC3)cc2)cc1 (stereo not drawn) (hydrate or solvate) [65f]
6 | – | 0.0708 | 1.78 | – | – | – | – | O=C(NCCNCC(O)COc1ccc(OCCOCC2CC2)cc1)Nc1ccc(OCc2ccccc2)cc1 (stereo not drawn) [45a]
7 | 96 to 98 | 0.0832 | – | > 100 | – | – | – | CCOCCOc1ccc(OCC(O)CNCCNC(=O)Nc2ccc(O)cc2)cc1 (stereo not drawn) [46d]
8 | – | 0.0295 | 8.51 | 5.75 | – | – | – | O=C(NCCNCC(O)COc1ccc(OCCOCC2CC2)cc1)Nc1cccc(Cl)c1 (stereo not drawn) [46e, 1-(2-(3-(4-(2-(Cyclopropylmethoxy)ethoxy)phenoxy)-2-hydroxypropylamino)ethyl)-3-(3-chlorophenyl)urea hydroformate]
9 | – | 0.0316 | 7.24 | 6.31 | – | – | – | CCOCCOc1ccc(OCC(O)CNCCNC(=O)Nc2cccc(Cl)c2)cc1 (stereo not drawn) [46f, 1-(2-(3-(4-(2-Ethoxyethoxy)phenoxy)-2-hydroxypropylamino)ethyl)-3-(3-chlorophenyl)urea hydroformate]
10 | – | 0.0776 | 10 | 0.537 | – | – | – | CCOCCOc1ccc(OCC(O)CNCCNC(=O)Cc2ccccc2O)cc1 (stereo not drawn) [46g, N-(2-(3-(4-(2-ethoxyethoxy)phenoxy)-2-hydroxypropylamino)ethyl)-2-(2-hydroxyphenyl)acetamide]
11 | – | 0.0447 | 9.33 | 0.257 | – | – | – | CCOCCOc1ccc(OCC(O)CNCCNC(=O)Cc2cccc(O)c2)cc1 (stereo not drawn) [46h, N-(2-(3-(4-(2-ethoxyethoxy)phenoxy)-2-hydroxypropylamino)ethyl)-2-(3-hydroxyphenyl)acetamide]
12 | – | 0.017 | 3.89 | 0.933 | – | – | – | O=C(Cc1ccc(O)cc1)NCCNCC(O)COc1ccc(OCCOCC2CC2)cc1 (stereo not drawn) [46i, N-(2-(3-(4-(2-(cyclopropylmethoxy)ethoxy)phenoxy)-2 hydroxypropylamino)ethyl)-2-(4-hydroxyphenyl)acetamide]
13 | – | – | 17.4 | – | −8.04 ± 0.04 | −6.06 ± 0.03 | – | Cc1cccc(NC(=O)NCCNCC(O)COc2ccc(OCCOC3CCCC3)cc2)c1 (stereo not drawn) [47c]
14 | – | – | 14.8 | – | −7.11 ± 0.01 | −6.10 ± 0.03 | – | O=C(NCCNCC(O)COc1ccc(OCCOC2CCCC2)cc1)Nc1ccccc1Br (stereo not drawn) [47n]
15 | – | – | 3.98 | – | −6.99 ± 0.08 | – | – | O=C(NCCNCC(O)COc1ccc(OCCOC2CCCC2)cc1)Nc1ccccc1O (stereo not drawn) [47t, 1-(2-(3-(4-(2-(Cyclopentyloxy)ethoxy)phenoxy)-2-hydroxypropylamino)ethyl)-3-(2-hydroxyphenyl)urea]
16 | – | – | 6.92 | – | −7.89 ± 0.06 | −5.85 ± 0.06 | – | O=C(NCCNCC(O)COc1ccc(OCCOC2CCCC2)cc1)Nc1cccc(O)c1 (stereo not drawn) [47u, 1-(2-(3-(4-(2-(Cyclopentyloxy)ethoxy)phenoxy)-2-hydroxypropylamino)ethyl)-3-(3-hydroxyphenyl)urea]
17 | – | 0.0324 | 4.57 | 0.501 | – | – | – | O=C(NCCNCC(O)COc1ccc(OCCOC2CCCC2)cc1)c1ccccc1O (stereo not drawn) [54d]
18 | – | 0.0309 | 1.1 | 0.282 | – | – | – | O=C(NCCNCC(O)COc1ccc(OCCOC2CCCC2)cc1)c1cccc(O)c1 (stereo not drawn) [54e]
19 | – | 0.00174 | 0.513 | 0.162 | – | – | – | O=C(NCCNCC(O)COc1ccc(OCCOC2CCCC2)cc1)c1ccc(O)cc1 (stereo not drawn) [54f]
20 | – | 0.00372 | 2.51 | 0.0155 | – | – | – | O=C(Cc1cccc(O)c1)NCCNCC(O)COc1ccc(OCCOC2CCCC2)cc1 (stereo not drawn) [54j, N-(2-(3-(4-(2-(cyclopentyloxy)ethoxy)phenoxy)-2-hydroxypropylamino)ethyl)-2-(3-hydroxyphenyl)acetamide]
21 | 149 to 152 | 0.0692 | – | 1.15 | – | – | – | O=C(NCCNCC(O)COc1ccc(OCCOC2CCCC2)cc1)c1ccccc1 (stereo not drawn) [62a]
22 | 107 to 109 | 0.0178 | – | 0.309 | – | – | – | Nc1ccccc1C(=O)NCCNCC(O)COc1ccc(OCCOC2CCCC2)cc1 (stereo not drawn) [62b]
23 | 105 to 107.5 | 0.174 | – | 4.47 | – | – | – | Nc1cccc(C(=O)NCCNCC(O)COc2ccc(OCCOC3CCCC3)cc2)c1 (stereo not drawn) [62c]

Row | melting point [°C] | Kd (beta1-adrenoceptor) [µM] | Kd (human beta3-adrenoceptor) [µM] | Kd (human beta2-adrenoceptor) [µM] | Beta 1 Log KD (beta1-adrenoceptor) | Beta 2 Log KD (human beta2-adrenoceptor) | Beta 3 Log KD (human beta3-adrenoceptor) | SMILES
24 | 67 to 69 | 0.0138 | – | 5.5 | – | – | – | Nc1ccc(C(=O)NCCNCC(O)COc2ccc(OCCOC3CCCC3)cc2)cc1 (stereo not drawn) [62d]
25 | 122 to 124 | 0.0024 | – | 0.0977 | – | – | – | O=C(Cc1ccccc1F)NCCNCC(O)COc1ccc(OCCOC2CCCC2)cc1 (stereo not drawn) [62g]
26 | 116.5 to 118 | 0.00676 | – | 0.11 | – | – | – | O=C(Cc1cccc(F)c1)NCCNCC(O)COc1ccc(OCCOC2CCCC2)cc1 (stereo not drawn) [62h]
27 | 114.5 to 115.5 | 0.00776 | – | 0.178 | – | – | – | O=C(Cc1ccc(F)cc1)NCCNCC(O)COc1ccc(OCCOC2CCCC2)cc1 (stereo not drawn) [62i]
28 | 113.5 to 114.5 | 0.00347 | – | 0.0575 | – | – | – | O=C(Cc1ccccc1Cl)NCCNCC(O)COc1ccc(OCCOC2CCCC2)cc1 (stereo not drawn) [62j]
29 | 117 to 118 | 0.00692 | – | 0.135 | – | – | – | O=C(Cc1cccc(Cl)c1)NCCNCC(O)COc1ccc(OCCOC2CCCC2)cc1 (stereo not drawn) [62k]
30 | 107 to 109 | 0.00759 | – | 0.162 | – | – | – | O=C(Cc1ccc(Cl)cc1)NCCNCC(O)COc1ccc(OCCOC2CCCC2)cc1 (stereo not drawn) [62l]
31 | 120.5 to 121.5 | 0.00955 | – | 0.126 | – | – | – | O=C(Cc1ccccc1C(F)(F)F)NCCNCC(O)COc1ccc(OCCOC2CCCC2)cc1 (stereo not drawn) [62m]
32 | 111.5 to 112.5 | 0.0132 | – | 0.2 | – | – | – | O=C(Cc1cccc(C(F)(F)F)c1)NCCNCC(O)COc1ccc(OCCOC2CCCC2)cc1 (stereo not drawn) [62n]
33 | 132 to 133 | 0.00912 | – | 0.214 | – | – | – | O=C(Cc1ccc(C(F)(F)F)cc1)NCCNCC(O)COc1ccc(OCCOC2CCCC2)cc1 (stereo not drawn) [62o]
34 | 119 to 120.5 | 0.00955 | – | 0.0724 | – | – | – | Cc1ccccc1CC(=O)NCCNCC(O)COc1ccc(OCCOC2CCCC2)cc1 (stereo not drawn) [62p]
35 | 82 to 85 | 0.0501 | – | 0.776 | – | – | – | Cc1ccc(CC(=O)NCCNCC(O)COc2ccc(OCCOC3CCCC3)cc2)cc1 (stereo not drawn) [62r]
36 | 110 to 113 | 0.0107 | – | 0.0537 | – | – | – | COc1cccc(CC(=O)NCCNCC(O)COc2ccc(OCCOC3CCCC3)cc2)c1 (stereo not drawn) [62s]
37 | 127.5 to 130 | 0.00537 | – | 0.251 | – | – | – | O=C(Cc1ccc(O)cc1)NCCNCC(O)COc1ccc(OCCOC2CCCC2)cc1 (stereo not drawn) [62v]
38 | – | 0.00282 | – | 1.15 | – | – | – | O=C(NCCNC[C@H](O)COc1ccc(OCCOC2CCCC2)cc1)Nc1cccc(Cl)c1 [(S)-47l, (S)-1-(2-(3-(4-(2-(Cyclopentyloxy)ethoxy)phenoxy)-2-hydroxypropylamino)ethyl)-3-(3-chlorophenyl)urea]
39 | – | – | – | – | – | −5.20 ± 0.03 | −4.62 ± 0.09 | N#Cc1cc(OCCOCC2CC2)ccc1OCC(O)CNCCNC(=O)Nc1ccc(O)cc1 (stereo not drawn) [LK204-545]
40 | – | 0.0038 | 4.37 | 0.0537 | – | – | – | O=C(Cc1ccccc1)NCCNCC(O)COc1ccc(OCCOC2CCCC2)cc1 (stereo not drawn) [compound 49, N-(2-(3-(4-(2-(Cyclopentyloxy)ethoxy)phenoxy)-2-hydroxypropylamino)ethyl)-2-phenylacetamide Hydroformate]
41 | – | 0.0295 | 1.05 | 0.468 | – | – | – | O=C(Nc1ccccc1)OCCNCC(O)COc1ccc(OCCOC2CCCC2)cc1 (stereo not drawn) [compound 51, 2-(3-(4-(2-(Cyclopentyloxy)ethoxy)phenoxy)-2-hydroxypropylamino)ethyl phenylcarbamate]
42 | – | 0.0813 | 7.08 | 0.692 | – | – | – | OC(CNCCNC(=S)Nc1ccccc1)COc1ccc(OCCOC2CCCC2)cc1 (stereo not drawn) [compound 52, 1-(2-(3-(4-(2-(Cyclopentyloxy)ethoxy)phenoxy)-2-hydroxypropylamino)ethyl)-3-phenylthiourea]
43 | – | 0.0257 | 19.1 | 0.933 | – | – | – | O=S(=O)(Cc1ccccc1)NCCNCC(O)COc1ccc(OCCOC2CCCC2)cc1 (stereo not drawn) [compound 53, N-(2-(3-(4-(2-(Cyclopentyloxy)ethoxy)phenoxy)-2-hydroxypropylamino)ethyl)-benzylsulfonamide]
44 | – | 0.00851 | 10.2 | 2.57 | – | – | – | O=C(NCCNCC(O)COc1ccc(OCCOC2CCCC2)cc1)Nc1ccc(O)c(F)c1 (stereo not drawn) [compound 54, 1-(2-(3-(4-(2-(Cyclopentyloxy)ethoxy)phenoxy)-2-hydroxypropylamino)ethyl)-3-(3-fluoro-4-hydroxyphenyl)urea Hydroformate]
45 | – | 0.000776 | – | 0.0251 | – | – | – | NC(=O)c1cc(OCCNCC(O)COc2ccc(OCCOC3CCCC3)cc2)ccc1O (stereo not drawn) [compound 72, 5-(2-(3-(4-(2-(Cyclopentyloxy)ethoxy)phenoxy)-2-hydroxypropylamino)ethoxy)-2-hydroxybenzamide]
